Reference: patent US20110144079A1, “ANTIMICROBIAL SYSTEM” (priority 2008, published 2011)

Assays:
B. cenocepacia J2315 = assay: Broth microdilution MIC/MBC; type: cell-based; settings: Burkholderia cenocepacia; for MBC: B. cenocepacia J2315, 99.9% killing; for MIC: B. cenocepacia J2315, 24 h at 37° C.
How it was run: (§1)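 Sterile-filtered imidazolium salts are diluted two-fold (0.0000625–1% w/v) in MHB, challenged with 2×10^5 CFU/ml bacteria, and held aerobically at 37 °C for 24 h. Bactericidal endpoints use 24 h MHA subculture of clear wells, requiring 99.9% kill.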

C. tropicalis NCTC 7393 = assay: Broth microdilution MIC/MBC; type: cell-based; settings: Candida tropicalis, NCTC7393; for MBC: C. tropicalis NCTC 7393, 99.9% killing; for MIC: C. tropicalis NCTC 7393, 24 h at 37° C.
How it was run: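 Cultures grown overnight in MHB were standardised by OD550 to 1×10^8 CFU/ml, then diluted to a final 2×10^5 CFU/ml. This inoculum was added to imidazolium salt dilutions spanning 0.0000625–1% w/v in MHB and incubated aerobically for 24 h at 37 °C. Wells without growth were plated on MHA for 24 h to find the MBC.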

E-MRSA 15 = assay: Broth microdilution MIC/MBC; type: cell-based; settings: for MBC: E-MRSA 15, 99.9% killing; for MIC: E-MRSA 15, 24 h at 37° C.
How it was run: as §1

E. coli NCTC 8196 = assay: Broth microdilution MIC/MBC; type: cell-based; settings: Escherichia coli, NCTC8196; for MBC: E. coli NCTC 8196, 99.9% killing; for MIC: E. coli NCTC 8196, 24 h at 37° C.
How it was run: as §1

K. aerogenes NCTC 7427 = assay: Broth microdilution MIC/MBC; type: cell-based; settings: Klebsiella aerogenes, NCTC7427; for MBC: K. aerogenes NCTC 7427, 99.9% killing; for MIC: K. aerogenes NCTC 7427, 24 h at 37° C.
How it was run: as §1

P. aeruginosa PA01 = assay: Broth microdilution MIC/MBC; type: cell-based; settings: Pseudomonas aeruginosa; for MIC: PA01, 24 h, P. aeruginosa PA01, 24 h at 37° C., read-out: MIC; for MBC: P. aeruginosa PA01, 99.9% killing
How it was run: as §1

P. mirabilis NCTC 12442 = assay: Broth microdilution MIC/MBC; type: cell-based; settings: Proteus mirabilis, NCTC12442; for MBC: P. mirabilis NCTC 12442, 99.9% killing; for MIC: P. mirabilis NCTC 12442, 24 h at 37° C.
How it was run: as §1

S. aureus ATCC 29213 = assay: Broth microdilution MIC/MBC; type: cell-based; settings: Staphylococcus aureus, ATCC29213; for MBC: S. aureus ATCC 29213, 99.9% killing; for MIC: S. aureus ATCC 29213, 24 h at 37° C.
How it was run: as §1

[1] = test system: S. epidermidis ATCC 12228; assay: Broth microdilution MIC/MBC; type: cell-based; settings: Staphylococcus epidermidis, ATCC12228; for MBC: S. epidermidis ATCC 12228, 99.9% killing; for MIC: S. epidermidis ATCC 12228, 24 h at 37° C.
How it was run: as §1

[2] = test system: S. epidermidis ATCC 35984; assay: Broth microdilution MIC/MBC; type: cell-based; settings: for MIC: S. epidermidis ATCC 35984, 24 h at 37° C.; for MBC: ATCC35984, S. epidermidis ATCC 35984, 99.9% killing
How it was run: as §1

MRSA [3] = assay: Broth microdilution MIC/MBC; type: cell-based, methicillin-resistant S. aureus; settings: Staphylococcus aureus; for MBC: 99.9% killing; for MIC: 24 h at 37° C.
Method: (§2) Broth microdilution tests were performed according to NCCLS guidelines. Serial two-fold dilutions of each imidazolium salt (from an original working solution which had been 0.22 μm sterile filtered) in Mueller-Hinton Broth (MHB) (100 μl) were prepared in 96-well micro-titre plates over the range 0.0000625-1% w/v. The inoculum to be tested was prepared by adjusting the turbidity of an actively overnight growing broth culture in MHB to an optical density at 550 nm equivalent to 1×10^8 CFU/ml. The suspension was further diluted to provide a final inoculum density of 2×10^5 CFU/ml in MHB as verified by total viable count. The inoculum to be tested (100 μl, 2×10^5 CFU ml^−1) was added to each well of the microdilution trays which were incubated aerobically for 24 h at 37° C. Positive and negative growth controls were included in every assay (6 replicates). After determining the MICs, minimum bactericidal concentrations (MBCs) were determined by spreading 20 μl of suspension from wells showing no growth onto MHA plates, which were then incubated for 24 h and examined for 99.9% killing.

E. coli PIII = assay: Broth microdilution MIC; type: cell-based; settings: Escherichia coli
Method: as §2

MRSA [4] = assay: Zone of inhibition on MRSA-seeded agar culture plates; type: cell-based, methicillin-resistant S. aureus; settings: 40 μL of ionic liquid applied to MRSA-seeded agar culture plates
Text: As used herein, CyMIMCI, refers to 1-alkyl-3-methyl-imidazolium chloride ionic liquids, wherein the alkyl group is a straight chain alkyl group having y carbon atoms.

Escherichia Coli = assay: Kill kinetics, planktonic cell cultures; type: cell-based
Text: (§3) The kill kinetic data is provided in terms of the measured colony forming units per millilitre (CFU/mL) values, and is also provided graphically in FIGS. 9-11.

[5] = test system: Methicillin Resistant Staphylococcus Aureus (MRSA); assay: Kill kinetics, planktonic cell cultures; type: cell-based
Text: as §3

[6] = test system: Staphylococcus Epidermidis; assay: Kill kinetics, planktonic cell cultures; type: cell-based
Text: as §3

[7] = Staphylococcus epidermidis, ATCC35984, 24 h

CCCCCCCCCCCCn1cc[n+](C)c1.[Cl-] [C12MIMCl, 1-dodecyl-3-methylimidazolium chloride]
MBC (B. cenocepacia J2315): 580 µM
MIC (B. cenocepacia J2315): 290 µM
MBC (C. tropicalis NCTC 7393): 73 µM
MIC (C. tropicalis NCTC 7393): 73 µM
MBC (E-MRSA 15): 73 µM
MIC (E-MRSA 15): 18 µM
MBC (E. coli NCTC 8196): 73 µM
MIC (E. coli NCTC 8196): 73 µM
MBC (K. aerogenes NCTC 7427): 145 µM
MIC (K. aerogenes NCTC 7427): 73 µM
MIC (P. aeruginosa PA01): 580 µM
MBC (P. aeruginosa PA01): 1160 µM
MBC (P. mirabilis NCTC 12442): 1160 µM
MIC (P. mirabilis NCTC 12442): 580 µM
MBC (S. aureus ATCC 29213): 36 µM
MIC (S. aureus ATCC 29213): 18 µM
MBC [1]: 145 µM
MIC [1]: 36 µM
MIC [2, 7]: 36 µM
MBC ([2]; Staphylococcus epidermidis): 73 µM
MBC (MRSA [3]): 290 µM
MIC (MRSA [3]): 36 µM
MIC (E. coli PIII): 73 µM
Zone Of Inhibition Radius (MRSA [4]): 17 mm
colony forming units per millilitre (Escherichia Coli; 871 μM, 0 Minutes): 1.13 × 10^8 CFU/mL
colony forming units per millilitre (Escherichia Coli; 871 μM, 5 Minutes): 0.00 CFU/mL
colony forming units per millilitre (Escherichia Coli; 871 μM, 10 Minutes): 0.00 CFU/mL
colony forming units per millilitre (Escherichia Coli; 871 μM, 20 Minutes): 0.00 CFU/mL
colony forming units per millilitre (Escherichia Coli; 871 μM, 30 Minutes): 0.00 CFU/mL
colony forming units per millilitre (Escherichia Coli; 871 μM, 45 Minutes): 0.00 CFU/mL
colony forming units per millilitre ([5]; 290 μM, 0 Minutes): 2.08 × 10^8 CFU/mL
colony forming units per millilitre ([5]; 290 μM, 5 Minutes): 2.75 × 10^5 CFU/mL
colony forming units per millilitre ([5]; 290 μM, 10 Minutes): 0.00 CFU/mL
colony forming units per millilitre ([5]; 290 μM, 20 Minutes): 0.00 CFU/mL
colony forming units per millilitre ([5]; 290 μM, 30 Minutes): 0.00 CFU/mL
colony forming units per millilitre ([5]; 290 μM, 45 Minutes): 0.00 CFU/mL
colony forming units per millilitre ([6]; 145 μM, 0 Minutes): 6.25 × 10^7 CFU/mL
colony forming units per millilitre ([6]; 145 μM, 5 Minutes): 1.67 × 10^2 CFU/mL
colony forming units per millilitre ([6]; 145 μM, 10 Minutes): 0.00 CFU/mL
colony forming units per millilitre ([6]; 145 μM, 20 Minutes): 0.00 CFU/mL
colony forming units per millilitre ([6]; 145 μM, 30 Minutes): 0.00 CFU/mL
colony forming units per millilitre ([6]; 145 μM, 45 Minutes): 0.00 CFU/mL

CCCCCCCCCCCCCCn1cc[n+](C)c1.[Cl-] [C14MIMCl, 1-tetradecyl-3-methylimidazolium chloride]
MBC (B. cenocepacia J2315): 264 µM
MIC (B. cenocepacia J2315): 132 µM
MBC (C. tropicalis NCTC 7393): 132 µM
MIC (C. tropicalis NCTC 7393): 66 µM
MBC (E-MRSA 15): 66 µM
MIC (E-MRSA 15): 16 µM
MBC (E. coli NCTC 8196): 33 µM
MIC (E. coli NCTC 8196): 33 µM
MBC (K. aerogenes NCTC 7427): 66 µM
MIC (K. aerogenes NCTC 7427): 33 µM
MIC (P. aeruginosa PA01): 264 µM
MBC (P. aeruginosa PA01): 264 µM
MBC (P. mirabilis NCTC 12442): 530 µM
MIC (P. mirabilis NCTC 12442): 264 µM
MBC (S. aureus ATCC 29213): 66 µM
MIC (S. aureus ATCC 29213): 16 µM
MBC [1]: 33 µM
MIC [1]: 7.7 µM
MIC ([2]; listed as 1-alkyl-3-methylimidazolium chlorides 14): 7.75 µM
MIC [2, 7]: 7.7 µM
MBC ([2]; Staphylococcus epidermidis): 33 µM
MBC (MRSA [3]): 66 µM
MIC (MRSA [3]): 16 µM
MIC (E. coli PIII): 33 µM
Zone Of Inhibition Radius (MRSA [4]): 10 mm
colony forming units per millilitre (Escherichia Coli; 265 μM, 0 Minutes): 1.67 × 10^8 CFU/mL
colony forming units per millilitre (Escherichia Coli; 265 μM, 5 Minutes): 1.07 × 10^4 CFU/mL
colony forming units per millilitre (Escherichia Coli; 265 μM, 10 Minutes): 2.33 × 10^3 CFU/mL
colony forming units per millilitre (Escherichia Coli; 265 μM, 20 Minutes): 0.00 CFU/mL
colony forming units per millilitre (Escherichia Coli; 265 μM, 30 Minutes): 0.00 CFU/mL
colony forming units per millilitre (Escherichia Coli; 265 μM, 45 Minutes): 0.00 CFU/mL
colony forming units per millilitre ([5]; 40 μM, 0 Minutes): 1.52 × 10^8 CFU/mL
colony forming units per millilitre ([5]; 40 μM, 5 Minutes): 1.78 × 10^5 CFU/mL
colony forming units per millilitre ([5]; 40 μM, 10 Minutes): 2.75 × 10^3 CFU/mL
colony forming units per millilitre ([5]; 40 μM, 20 Minutes): 3.33 × 10^2 CFU/mL
colony forming units per millilitre ([5]; 40 μM, 30 Minutes): 0.00 CFU/mL
colony forming units per millilitre ([5]; 40 μM, 45 Minutes): 0.00 CFU/mL
colony forming units per millilitre ([6]; 40 μM, 0 Minutes): 8.67 × 10^7 CFU/mL
colony forming units per millilitre ([6]; 40 μM, 5 Minutes): 0.00 CFU/mL
colony forming units per millilitre ([6]; 40 μM, 10 Minutes): 0.00 CFU/mL
colony forming units per millilitre ([6]; 40 μM, 20 Minutes): 0.00 CFU/mL
colony forming units per millilitre ([6]; 40 μM, 30 Minutes): 0.00 CFU/mL
colony forming units per millilitre ([6]; 40 μM, 45 Minutes): 0.00 CFU/mL
